From patent US6255337A, “Anti-first-pass effect compounds and citrus extract” (Bioavailability Systems, L.L.C., priority 1999, dated 2001)
Entries after “also recorded” stand apart in the source; their conditions may differ. Read-outs that look alike come from different tables or passages of the source.

Legend:
human cytochrome P450 = assay: Protocol C: Assessment of human cytochrome P450-mediated biotransformation (terfenadine, human hepatic S9); type: in vitro ADME
Description: The process of preparing incubation mixtures begins by mixing 10 uL of ethanol or an ethanolic solution containing an inhibitor with 100 uL of 100 mg/mL bovine serum albumin (Sigma) dissolved in reaction buffer at room temperature. Reaction buffer is composed of 0.10 M sodium phosphate, 1.0 mM ethylenediaminetetraacetic acid, and 5.0 mM magnesium chloride, pH 7.4 (all reagents: Fisher Scientific). Inhibitory chemicals used were ketoconazole (Research Diagnostics, Inc.), miconazole, bergapten, xanthotoxin (previous three from Sigma), bergamotin, imperatorin, isopimpinellin, psoralen, angelicin (previous five from Indofine Chemical Company, Inc.), and fractions or precipitates resulting from Protocols A and B above. When possible, final inhibitor concentrations were expressed in molarity by calculation from the weighed material or by interpolation from HPLC calibration curves prepared with reference materials; otherwise, concentrations are expressed as weight per volume. Reaction tubes are placed on ice in preparation for the manipulations that follow. Sufficient reaction buffer is added so that the final volume of each tube will be 500 uL, 5 uL of a 100-fold concentrate for generating reduced nicotinamide adenine dinucleotide phosphate is added (such that completed reaction mixture contains 1.0 mM nicotinamide adenine dinucleotide phosphate, 1 U/mL glucose-6-phosphate dehvdrogenase, and 10 mM glucose-6-phosphate; all from Sigma), and then human hiepatic S9 (Anatomic Gift Foundation) is thawed and added in sufficient amounts to cause readily detectable amounts of metabolites to be formed in control reactions (amount necessary varies among individuals, but 10 uL is typical).
The samples prepared above are readied for HPLC assessment using the protocol that follows. Each tube is vortex mixed and centrifuged for 10 min at setting 35, the resulting supernatant is transferred to a clean tube, and the liquid is evaporated using a Speed Vac apparatus. The residue in each tube is first dissolved in 40 uL 1:1 acetonitrile:water, 2.5 mL of acetonitrile is added, and the centrifuge-transfer-evaporate step just described is repeated.
The dry residue resulting from the above-described experiments and sample preparation protocol may be analyzed for terfienadine metabolites using the HPLC method described below and may also be used to quantitate the inhibitory chemicals that were added to the reaction (see Protocol B). Linear gradients are used for elution and are formed by mixing mobile phase A composed of water with mobile phase B composed of 0.025% (v/v) formic acid in acetonitrile (instrument: Hewlett Packard). The elution time, in minutes, the percentage of mobile phase B present in the mixed mobile phase, and the flow rate (mL/min) are as follows: 0, 10, 0.10; 2, 10, 0.10; 3.5, 10, 0.20; 4, 10, 0.25; 5, 10, 0.25; 30, 55, 0.25; 32, 98, 0.25; 33, 98, 0.40; 39.8, 98, 0.40; 40, 98, 0.25; 45, 10, 0.25; 45.25, 10, 0.20; 50, 10, 0.20; 50.25, 10, 0.10. The chromatographic column has dimensions of 150 mm length×2.1 mm internal diameter. is packed with a proprietary material (Prism, Keystone Scientific, Inc.), is protected with a 2 mm internal diameter column containing the same material and with a PTFE filter, and is maintained at 35+/-0.2 C. The dry sample residue is mixed with 60 uL of 1:1 acetonitrile:water followed by 40 uL water just prior to each 50.25 min run cycle. The column eluate from each 10 uL injection is monitored for fluorescence with excitation at 228 nm, emission at 291 nm, and bandpass filtration at 280 nm.

[1] = in words; cited from earlier work
first-pass effect = conditions: orally administered drugs; in words; cited from earlier work
[2] = system: first-pass effect of cyclosporin; conditions: heart transplant patients, cyclosporin co-administered with ketoconazole; cited from earlier work
cytochrome P450 = conditions: given to humans in large doses; in words; cited from earlier work
[3] = with inhibitors commonly given to humans; in words; cited from earlier work

O=c1ccc2ccc3occc3c2o1 [angelicin]
first-pass effect inhibition (determined herein) (human cytochrome P450; in words): ineffective

CC(C)=CCC/C(C)=C/COc1c2ccoc2cc2oc(=O)ccc12 [bergamottin]
first-pass effect inhibition (determined herein) (human cytochrome P450): ineffective

COc1c2ccoc2cc2oc(=O)ccc12 [bergapten, 5-methoxypsoralen]
toxicity / phototoxicity [1]: toxic, in particular, phototoxic

CC[C@H]1OC(=O)[C@H](C)[C@@H](O[C@H]2C[C@@](C)(OC)[C@@H](O)[C@H](C)O2)[C@H](C)[C@@H](O[C@@H]2O[C@H](C)C[C@H](N(C)C)[C@H]2O)[C@](C)(O)C[C@@H](C)C(=O)[C@H](C)[C@@H](O)[C@]1(C)O [erythromycin]
inhibition of the first-pass effect (first-pass effect): identified as inhibitors of the first-pass effect

OC(Cn1cncn1)(Cn1cncn1)c1ccc(F)cc1F [fluconazole]
inhibition of the first-pass effect (first-pass effect): identified as inhibitors of the first-pass effect

CC(C)=CCOc1c2occc2cc2ccc(=O)oc12 [imperatorin]
first-pass activity according to Protocol C (human cytochrome P450; 2000 nM, in words): non-first-pass inhibiting
first-pass effect inhibition (determined herein) (human cytochrome P450; in words): ineffective

COc1c2ccoc2c(OC)c2oc(=O)ccc12 [isopimpinellin]
first-pass effect inhibition (determined herein) (human cytochrome P450; in words): ineffective

CCC(C)n1ncn(-c2ccc(N3CCN(c4ccc(OCC5COC(Cn6cncn6)(c6ccc(Cl)cc6Cl)O5)cc4)CC3)cc2)c1=O (stereo not shown) [itraconazole]
inhibition of the first-pass effect (first-pass effect): identified as inhibitors of the first-pass effect

CC(=O)N1CCN(c2ccc(OCC3COC(Cn4ccnc4)(c4ccc(Cl)cc4Cl)O3)cc2)CC1 (stereo not shown) [ketoconazole]
reduction of the dose of cyclosporin required [2]: approximately 85%
inhibition of the first-pass effect (first-pass effect): inhibition of the first-pass effect of cyclosporin; also recorded: identified as inhibitors of the first-pass effect

Clc1ccc(COC(Cn2ccnc2)c2ccc(Cl)cc2Cl)c(Cl)c1 (stereo not shown) [miconazole]
inhibition of the first-pass effect (first-pass effect): identified as inhibitors of the first-pass effect

O=c1ccc2cc3ccoc3cc2o1 [psoralen]
first-pass effect inhibition (determined herein) (human cytochrome P450; in words): ineffective
inhibition of cytochrome P450 (cytochrome P450): do inhibit cvtochrome P450
toxicity / phototoxicity [1]: toxic, in particular, phototoxic

CC(C)c1nc(CN(C)C(=O)N[C@H](C(=O)N[C@@H](Cc2ccccc2)C[C@H](O)[C@H](Cc2ccccc2)NC(=O)OCc2cncs2)C(C)C)cs1 [ritonavir]
inhibition of the first-pass effect (first-pass effect): identified as inhibitors of the first-pass effect

Cc1nnc2n1-c1ccc(Cl)cc1C(c1ccccc1Cl)=NC2 [triazolam]
increase of bioavailability by inhibitors [3]: bioavailability is increased by inhibitors

CO[C@H]1C[C@H](O[C@H]2[C@H](C)[C@@H](O[C@@H]3O[C@H](C)C[C@H](N(C)C)[C@H]3OC(C)=O)[C@@H](C)C[C@@]3(CO3)C(=O)[C@H](C)[C@@H](OC(C)=O)[C@@H](C)[C@@H](C)OC(=O)[C@@H]2C)O[C@@H](C)[C@@H]1OC(C)=O [troleandomycin]
inhibition of the first-pass effect (first-pass effect): identified as inhibitors of the first-pass effect

COc1c2occc2cc2ccc(=O)oc12 [xanthotoxin, 8-methoxypsoralen]
toxicity / phototoxicity [1]: toxic, in particular, phototoxic
